# Assay results from US20130079749A1, “Modular Drug Delivery System for Minimizing Trauma During and After Insertion of a Cochlear Lead” (ADVANCED BIONICS, LLC, priority 2007, published 2013).
# Legend:
# [1] = Solubility of dexamethasone forms; assay type: physicochemical
# [2] = In-vivo comparison of DXMb and DEX salt delivered over a week
# Description: In one study performed by the Applicants, a comparison of DXMb and DEX salt was performed in an in-vivo model over the prior of a week. […] This surprising potency allows for increased therapeutic effects without increasing the volume of the drug or the size of the intracochlear lead.
# [3] = test system: auditory hair cells; assay: Organ of Corti photomicrographs thirty days after electrode insertion trauma; assay type: in vivo, guinea pig; conditions: lower middle turn of cochlea, thirty days after EIT, FIG. 11 microphotograph D
# Text: The efficacy of DXMb was also studied by the Applicants in relationship to preserving residual hearing and internal nerve structures within the cochlea. In the study performed by the Applicants, 88 ears of 44 pigmented guinea pigs of 250 to 300 grams were randomly assigned to one of four groups as follows: group 1 corresponded to the contralateral, unoperated ears from groups 2 to 4 animals (n=44). Group 2 (n=15): electrode insertion trauma (EIT); these ears underwent EIT only via a cochleostomy and then immediate closure. Group 3 (n=15): EIT+artificial perilymph (EIT+AP) treated ears received EIT and immediately after trauma, insertion of a microcatheter into the cochleostomy site with AP perfused into the scala tympani (ST) for a period of 8 days. Group 4 (n=14): EIT dexamethasone base (EIT=DXMb) treated animals underwent EIT followed immediately by insertion of a microcatheter into the cochleostomy with ST perfusion of DXMb ([…]) in AP for a period of 8 days. Hearing measurements were performed before surgery, as well as on post-EIT days 0, 3, 7, 14, and 30. Tone bursts of 0.5, 1, 4, and 16 kHz were delivered to the ear at a rate of 29 Hz. The intensity of the stimulation was decreased by 10 dB sound pressure level (SPL) decrements until no auditory brainstem response was identified.
# The organization of hair cells is in three distinct rows. […]
smiles,measurement,setting,value
"C[C@@H]1C[C@H]2[C@@H]3CCC4=CC(=O)C=C[C@]4(C)[C@@]3(F)[C@@H](O)C[C@]2(C)[C@@]1(O)C(=O)CO [DXMb, dexamethasone base]",solubility in aqueous preparations,[1]; aqueous preparations,limited solubility in aqueous preparations
same,solubility in organic solvents,[1]; organic solvents,highly soluble in organic solvents
same,effectiveness compared with DEX salt,"[2]; DXMb 1 μL/hr at 70 μL/ml vs DEX salt 100 μL/ml at 1 μL/hr, in-vivo model, one week",just as effective
same,potency compared with salt forms of dexamethasone,[2]; administered into the intracochlear space after implantation surgeries,surprisingly more potent than salt forms of dexamethasone
same,hair cells and hair cell structure,[3],substantially similar to that of the control group
